Where “and” joins values, the source holds several entries; their conditions need not be identical. Identical values can stand only once. Like-named read-outs stand apart in the source and are kept apart here. Each block holds one molecule with its values, some of them ahead of it.
Key:
human A3AR [1] = target: T1, human A3AR (Homo sapiens, UniProt P0DMS8); assay: High-content fluorescent ligand (CA200645) competition binding assay in live CHO CRE-SPAP cells expressing the A3AR; conditions: for remaining binding at 1000 µM: read-out: % of CA200645 binding (% DMSO control)
T1 sequence (P0DMS8 1-318): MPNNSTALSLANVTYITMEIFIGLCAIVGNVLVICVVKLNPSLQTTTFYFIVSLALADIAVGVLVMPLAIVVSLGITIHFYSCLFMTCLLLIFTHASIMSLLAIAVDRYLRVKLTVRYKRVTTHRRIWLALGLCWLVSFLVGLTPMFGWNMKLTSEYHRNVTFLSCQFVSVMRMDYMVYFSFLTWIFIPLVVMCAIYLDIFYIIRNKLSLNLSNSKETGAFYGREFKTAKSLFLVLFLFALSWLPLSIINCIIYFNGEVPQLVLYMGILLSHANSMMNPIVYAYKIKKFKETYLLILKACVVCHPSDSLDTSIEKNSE

human A1AR [2] = target: T2, human A1AR (Homo sapiens, UniProt P30542); assay: High-content fluorescent ligand (CA200645) competition binding assay in live CHO-A1 cells; conditions: for inhibition at 10 µM: read-out: inhibition of CA200645 binding at the A1AR; for A1 % inhibition (Table S3): top concentration of compound tested, quoted where less than 50% inhibition of total binding
T2 sequence (P30542 1-326): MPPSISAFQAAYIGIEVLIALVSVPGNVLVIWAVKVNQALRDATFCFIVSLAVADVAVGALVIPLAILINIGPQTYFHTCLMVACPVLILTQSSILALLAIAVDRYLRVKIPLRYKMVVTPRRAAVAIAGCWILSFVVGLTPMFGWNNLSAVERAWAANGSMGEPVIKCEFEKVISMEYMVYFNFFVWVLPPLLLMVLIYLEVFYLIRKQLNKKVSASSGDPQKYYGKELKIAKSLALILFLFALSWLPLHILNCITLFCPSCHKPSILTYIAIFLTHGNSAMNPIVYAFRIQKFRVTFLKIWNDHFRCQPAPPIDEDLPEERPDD

human A3AR [3] = target: T1, human A3AR; assay: cell-based
A3-YFP = A3-YFP receptor internalization (granularity analysis) in CHO A3-YFP cells
human A3AR [4] = target: T1, human A3AR
human A1AR [5] = target: T2, human A1AR
human A3AR [6] = target: T1, human A3AR; assay: CRE-SPAP gene transcription assay (shift of NECA-mediated inhibition of forskolin-stimulated SPAP response)
human A1AR [7] = target: T2, human A1AR; assay: cell-based
[8] = pKi at the adenosine A3 receptor (Table S2), mean ± s.e.m from 3 separate experiments
[9] = A3 pKi (Table S3), mean ± s.e.m

Compound: O=C(Nc1ccccc1-c1nc2ccccc2[nH]1)c1cccnc1 [Compound 10]
inhibition at 10 µM (human A1AR [2]): < 50%
A1 % inhibition (Table S3) (human A1AR [2]): 38.9 ± 8.3%
fold increase in A3AR affinity compared to DP01095 (human A3AR [1]): 3 fold
Ki (human A3AR [1]; [9]): 97.7 nM

Compound: COc1ccc(NN=c2[nH]c3ccccc3[nH]c2=O)cc1 [Compound 3]
Ki (human A3AR [3]): 2.63 µM

Compound: CNC(=O)[C@H]1O[C@@H](n2cnc3c(NCc4cccc(I)c4)ncnc32)[C@H](O)[C@@H]1O [IB-MECA]
A3-YFP internalization / agonist action (A3-YFP): caused A3-YFP internalisztion

Compound: Nc1cccc(-c2nc3ccccc3[nH]2)c1 [Compound 8]
Ki (human A3AR [3]): 3.24 µM

Compound: COc1ccc(-n2nc3c(=O)[nH]c4ccccc4n3c2=O)cc1 [Compound 2]
Ki (human A3AR [3]): 0.0776 µM

Compound: Nc1ccc(-c2nc3ccccc3[nH]2)cc1 [Compound 9]
inhibition at 100 µM (human A3AR [1]; read-out: % inhibition of CA200645 binding at A3AR): 41.2 ± 7.3%

Compound: CCCCC#Cc1nc(NC)c2ncn([C@@H]3O[C@H](CO)[C@@H](O)[C@H]3O)c2n1 [HEMADO, reference compound]
A3-YFP internalization / agonist action (A3-YFP): stimulated A3-YFP internalization
pIC50 for inhibition of CA200645 binding (agonists) (human A3AR [1]; A3AR, n = 4): 7.23 ± 0.23

Compound: Cc1cc(N)c(N)cc1Cl [TL 00770]
Ki (human A3AR [1]; [8]): 1000 nM
remaining binding at 1000 µM (human A3AR [1]): 23.5%

Compound: Cc1cc2cc(N)ccc2[nH]1 [AC 34875]
Ki (human A3AR [1]; [8]): 1200 nM
remaining binding at 1000 µM (human A3AR [1]): 10.4%

Compound: O=C(Nc1cnc2ccccc2c1)c1ccccc1 [Compound 4]
Ki (human A3AR [3]): > 100 µM

Compound: Nc1ccc(C(F)(F)F)cc1N [BTB 07340]
Ki (human A3AR [1]; [8]): 2950 nM
remaining binding at 1000 µM (human A3AR [1]): 10.3%

Compound: CNC(=O)[C@H]1O[C@@H](n2cnc3c(NCc4cccc(I)c4)nc(Cl)nc32)[C@H](O)[C@@H]1O [2-Cl IB-MECA]
A3-YFP internalization / agonist action (A3-YFP): stimulated A3-YFP internalization

Compound: Nc1ccc2[nH]ncc2c1 [AC 30454]
Ki (human A3AR [1]; [8]): 3160 nM
remaining binding at 1000 µM (human A3AR [1]): 13%

Compound: Nc1ccccc1-c1nc2ccccc2[nH]1 [DP 01095]
Ki (human A3AR [3]): 0.363 µM and 0.331 µM
remaining binding at 1000 µM (human A3AR [1]): 36.3%

Compound: Nc1nc(NCCc2ccc(O)cc2)nc2nc(-c3ccco3)nn12 [ZM 241385, reference compound]
Ki (human A3AR [3]): 0.182 µM
Kb (human A3AR [6]): 407 nM

Compound: COc1ccc(-n2nc3c(NC(=O)c4ccccc4)nc4ccccc4n3c2=O)cc1 [Compound 1]
Ki (human A3AR [3]): 0.00309 µM
Ki (human A1AR [7]): 1170 nM
Kb (human A3AR [6]): 1.66 nM

Compound: COc1ccc(-n2ccnc2)cc1 [Compound 6]
Ki (human A3AR [3]): 525 µM

More lines, now with the values ahead:

Ki (human A3AR [1]; [8]): 794 nM
remaining binding at 1000 µM (human A3AR [1]): 31.1%
Compound: COC(=O)C1Cc2ccccc2N1 (centres unmarked) [MO 00997]

inhibition at 10 µM (human A1AR [2]): < 50%
A1 % inhibition (Table S3) (human A1AR [2]): 47.9 ± 9.7%
Ki (human A3AR [1]; [9]): 257 nM
Compound: O=C(Nc1ccccc1-c1nc2ccccc2[nH]1)c1cccs1 [Compound 12]

inhibition at 10 µM (human A1AR [2]): < 50%
A1 % inhibition (Table S3) (human A1AR [2]): 40.6 ± 7.3%
Ki (human A3AR [1]; [9]): 166 nM
Compound: O=C(Nc1ccccc1-c1nc2ccccc2[nH]1)c1ccco1 [Compound 11]

Ki (human A3AR [4]): 56.2 nM
Ki (human A1AR [5]): 41.7 nM
Compound: CCCn1c(=O)[nH]c2nc(-c3ccc(S(=O)(=O)N4CCN(c5ccc(Cl)cc5)CC4)cc3)[nH]c2c1=O [PSB 603]

Ki (human A3AR [3]): 20.4 µM
Compound: COc1ccc(NC(C)=O)cc1 [Compound 7]

displacement of CA200645 binding (human A3AR [1]; A3AR, agonist competition curves): only partial displacement
Compound: CCNC(=O)[C@H]1O[C@@H](n2cnc3c(N)nc(NCCc4ccc(CCC(=O)O)cc4)nc32)[C@H](O)[C@@H]1O [CGS 21680, reference compound]

Ki (human A3AR [3]): 0.186 µM
Compound: Nc1nc2c(cnn2CCc2ccccc2)c2nc(-c3ccco3)nn12 [SCH 58261, reference compound]

Ki (human A3AR [3]): > 10000 µM
Compound: Nc1cnc2ccccc2c1 [Compound 5]

Ki (human A3AR [3]): 0.00661 µM
Compound: Nc1nc2ccc(Cl)cc2c2nc(-c3ccco3)nn12 [CGS 15943, reference compound]
